Source: US6057311A, “Benzodiazonine derivatives binding to cholecystokinin or gastrin receptors” (James Black Foundation Limited, priority 1996, dated 2000)

How the values were obtained:
CCKA = biological target: T1, CCKA (Cavia porcellus, UniProt Q63931); experiment: CCKA binding assay, guinea pig pancreas membranes ([125I]-CCK8(S)); settings: [125I]-CCK8(S) 200 pM, 0.375 μM PD134,308, 150 min at 21±3° C.; for Ki: pH 7.2, read-out: pKi (Guinea pig pancreas) (converted); for pKi (Guinea pig pancreas): pH 7.2
T1 construct: The pancreatata were removed from male guinea-pigs; from tissue; host or cells: pancreas of male Dunkin Hartley guinea pigs, membranes
T1 sequence (Q63931 1-430): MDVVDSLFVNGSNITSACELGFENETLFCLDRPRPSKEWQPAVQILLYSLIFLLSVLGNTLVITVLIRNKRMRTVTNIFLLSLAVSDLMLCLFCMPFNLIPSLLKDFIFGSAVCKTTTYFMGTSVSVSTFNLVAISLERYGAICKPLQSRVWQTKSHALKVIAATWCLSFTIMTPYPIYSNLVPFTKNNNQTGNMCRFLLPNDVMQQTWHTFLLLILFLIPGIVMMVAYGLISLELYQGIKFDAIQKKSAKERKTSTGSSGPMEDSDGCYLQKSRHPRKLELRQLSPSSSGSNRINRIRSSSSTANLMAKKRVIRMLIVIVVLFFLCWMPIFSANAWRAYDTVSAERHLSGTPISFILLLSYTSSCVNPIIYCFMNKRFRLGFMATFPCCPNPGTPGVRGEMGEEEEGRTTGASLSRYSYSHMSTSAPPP
Method: The compounds of the examples were also tested in a CCKA binding assay as follows:
The pancreatata were removed from male guinea-pigs (200-300 g; Dunkin Hartley) and placed in ice-cold HEPES buffer (pH 7.2@21±3° C.). The pancreatata were homogenised in 40 ml ice-cold HEPES buffer using a polytron (Brinkmann, PT10, setting 10) 4×1 second. The homogenate was centrifuged at 39,800 g for 15 min at 4° C. The supernatant was discarded and the pellet re-suspended using a Teflon-in-glass homogeniser in 20 volumes of fresh buffer and re-centrifuged as above. The final pellet was re-suspended using a Teflon-in-glass homogeniser to a tissue concentration of 1 mg.ml^-1 (original wet weight), and filtered through 500 μm pore-size Nytex mesh.
The membranes (400 μl; containing 0.375 μM PD134,308) were incubated for 150 minutes at 21±3° C. in a final volume of 0.5 ml with HEPES buffer containing [^125 I]-CCK8 (S) (50 μl; 200 pM) and competing compound. Total and non-specific binding of [^125 I]-CCK8 (S) were defined using 50 μl of buffer and 50 μl of 100 nM L-364,718 respectively. The assay was terminated by rapid filtration through pre-soaked Whatman GF/B filters using a Brandell Cell Harvester. The filters were washed (3×3 ml) with ice-cold 50 mM Tris HCl (pH 7.4 at 4° C.) and bound radioactivity was determined by counting (1 min) in a gamma counter.

CCKB receptor = biological target: T2, CCKB receptor (Mus musculus, UniProt P56481); experiment: radioligand binding assay at the CCKB receptor in mouse cortical membranes ([125I]-CCK8S); settings: [125I]-CCK8S 200 pM, 150 min at 21±3° C.; for Ki: pH 7.2, read-out: pKi (Mouse cortex) (converted); for pKi (Mouse cortex): pH 7.2
T2 construct: The cortex was dissected, weighed and homogenised in 40 ml ice-cold buffer; tissue Charles River (animals); host or cells: cerebral cortex of male CD1 mice, membranes
T2 sequence (P56481 1-453): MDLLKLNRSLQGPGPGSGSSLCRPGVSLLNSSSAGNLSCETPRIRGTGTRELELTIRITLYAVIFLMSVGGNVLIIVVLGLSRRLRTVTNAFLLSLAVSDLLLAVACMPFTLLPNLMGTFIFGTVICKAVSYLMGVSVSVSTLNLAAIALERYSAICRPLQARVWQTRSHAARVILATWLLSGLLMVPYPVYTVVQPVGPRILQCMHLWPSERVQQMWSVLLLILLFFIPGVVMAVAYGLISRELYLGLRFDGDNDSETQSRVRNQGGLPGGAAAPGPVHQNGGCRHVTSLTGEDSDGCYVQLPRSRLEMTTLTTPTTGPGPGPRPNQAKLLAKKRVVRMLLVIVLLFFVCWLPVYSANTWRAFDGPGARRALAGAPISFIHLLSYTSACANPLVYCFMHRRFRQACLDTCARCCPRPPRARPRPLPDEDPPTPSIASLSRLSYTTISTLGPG
Method: The compounds of the examples were tested for binding at the CCKB receptor in mouse cortical membranes by means of a radioligand binding assay. The procedure was as follows:
The whole brains from male mice (CD1 22-25 g; Charles River) were removed and placed in ice-cold buffer (pH7.2@21±3° C.) of the following composition (mM); 10 HEPES, 130 NaCl, 4.7 KCl, 5 MgCl2, 1 EDTA and containing 0.25 g.1^-1 bacitracin. The cortex was dissected, weighed and homogenised in 40 ml ice-cold buffer using a Teflon-in-glass homogeniser. The homogenate was centrifuged at 39,800 g for 20 min at 4° C., the supernatant discarded and the pellet resuspended by homogenisation in fresh buffer. The homogenate was recentrifuged (39,800 g; 20 min @4° C.) and the final pellet was resuspended in HEPES buffer to give a tissue concentration of 2 mg.ml^-1 (original wet weight).
The membranes (400 μl) were incubated for 150 min at 21±3° C. in a final volume of 0.5 ml with HEPES buffer containing [^125 I]-CCK8S (0.05 ml; 200 pM NEN 2200 Ci.mmol^-1) and competing compound. Total and non-specific binding of [^125 I]-CCK8S were defined using 0.05 ml of buffer and 0.05 ml of […] L-365,260, respectively. The assay was terminated by rapid filtration through pre-soaked Whatman GF/B filters using a Brandell Cell harvester. The filters were washed (3×3 ml) with ice-cold 50 mM Tris-HCl (pH7.4@4° C.) and bound radioactivity determined by counting (1 min.) in a gamma-counter.

Ki (CCKA) | Ki (CCKB receptor) | pKi (Guinea pig pancreas) (CCKA) | pKi (Mouse cortex) (CCKB receptor) | Compound
3.16 µM | 2.51 µM |  |  | COc1ccc(CN2C(=O)[C@@H](CC34CC5CC(CC(C5)C3)C4)N(C(C)=O)[C@H](C(=O)O)CC(=O)c3ccccc32)cc1 [Example 14, (3R,5S)-4-acetyl-3-[(1-adamantyl)methyl]-1-(4-methoxy)benzyl-2,7-dioxo-2,3,4,5,6,7-hexahydro-1H-1,4-benzodiazonine-5-carboxylate]
25.1 µM | 0.158 µM |  |  | CC(=O)N1[C@H](CC23CC4CC(CC(C4)C2)C3)C(=O)N(Cc2ccccc2F)c2ccccc2C(=O)C[C@H]1C(=O)N[C@@H](C)C(=O)O [Example 64, (3R,5S)-4-acetyl-3-(1-adamantyl)methyl-1-(2-fluorobenzyl)-5-[(1S)-carboxy]ethylaminocarbonyl-2,7-dioxo-2,3,4,5,6,7-hexahydro-1H-1,4-benzodiazonine]
3.16 µM | 2.51 µM |  |  | COc1cccc(CN2C(=O)[C@@H](CC34CC5CC(CC(C5)C3)C4)N(C(C)=O)[C@H](C(=O)O)CC(=O)c3ccccc32)c1 [Example 13, (3R,5S)-4-acetyl-3-[(1-adamantyl)methyl]-1-(3-methoxy)benzyl-2,7-dioxo-2,3,4,5,6,7-hexahydro-1H-1,4-benzodiazonine-5-carboxylate]
1.58 µM | 1.26 µM |  |  | CC(=O)N1[C@H](CC23CC4CC(CC(C4)C2)C3)C(=O)N(Cc2cccc(Cl)c2)c2ccccc2C(=O)C[C@H]1C(=O)O [Example 15]
10 µM | 10 µM |  |  | CC(=O)N1[C@H](C(=O)O)CC(=O)c2ccccc2N(Cc2ccccc2)C(=O)[C@@H]1CC12CC3CC(CC(C3)C1)C2 [Example 12, (3S,5S)-4-acetyl-3-(1-adamantyl)methyl-1-benzyl-2,7-dioxo-2,3,4,5,6,7-hexahydro-1H-1,4-benzodiazonine-5-carboxylate]
0.316 µM | 3.98 µM |  |  | C=C1CCN(C(=O)Nc2cccc(C)c2)CC(=O)N(Cc2ccccc2)c2ccccc21 [Example 9, 1-benzyl-7-methylene-4-(3-methylphenyl)carbamyl-2-oxo-2,3,4,5,6,7-hexahydro-1H-1,4-benzodiazonine]
12.6 µM | 0.398 µM |  |  | CC(=O)N1[C@H](CC23CC4CC(CC(C4)C2)C3)C(=O)N(Cc2ccccc2)c2ccc(F)cc2C(=O)C[C@H]1C(=O)NCC(=O)O (relative stereo) [Example 61, (+/-)-trans-4-acetyl-3-(1-adamantyl)methyl-1-benzyl-5-carboxymethylaminocarbonyl-2,7-dioxo-9-fluoro-2,3,4,5,6,7-hexahydro-1H-1,4-benzodiazonine]
5.01 µM | 10 µM |  |  | Cc1cccc(NC(=O)N2CCC(=O)c3ccccc3N(CC(=O)N3CCCC3)C(=O)C2)c1 [Example 6, 4-(3-methylphenyl)carbamyl-2,7-dioxo-1-pyrrolidinoyl-methyl-2,3,4,5,6,7-hexahydro-1H-1,4-benzodiazonine]
2 µM | 1.58 µM |  |  | CC(=O)N1[C@H](CC23CC4CC(CC(C4)C2)C3)C(=O)N(Cc2ccc(Cl)cc2)c2ccccc2C(=O)C[C@H]1C(=O)O [Example 16, (3R,5S)-4-acetyl-3-[(1-adamantyl)methyl]-1-(4-chloro)benzyl-2,7-dioxo-2,3,4,5,6,7-hexahydro-1H-1,4-benzodiazonine-5-carboxylate]
10 µM | 20 µM |  |  | CC(C)(C)OC(=O)CN1C(=O)CN(C(=O)OCc2ccccc2)CCC(=O)c2ccccc21 [Example 42, 4-benzyloxycarbonyl-1-tert-butyloxycarbonylmethyl-2,7-dioxo-2,3 4,5,6,7-hexahydro-1H-1,4-benzodiazonine]
0.316 µM | 2.51 µM |  |  | Cc1cccc(NC(=O)N2CCC(C)c3ccccc3N(Cc3ccccc3)C(=O)C2)c1 (stereo not drawn) [Example 10, 1-benzyl-7-methyl-4-(3-methylphenyl)carbamyl-2-oxo-2,3,4,5,6,7-hexahydro-1H-1,4-benzodiazonine]
 |  | 5.0 | 5.6 | CC(=O)N1[C@H](CC2CCCCCC2)C(=O)N(Cc2ccccc2)c2ccccc2C(=O)C[C@H]1C(=O)NCC(=O)O [Example 39, (3R,5S)-4-acetyl-1-benzyl-5-carboxymethylaminocarbonyl-3-cycloheptylmethyl-2,7-dioxo-2,3,4,5,6,7-hexahydro-1H-1,4-benzodiazonine]
0.0794 µM | 10 µM |  |  | CC1CCN(C(=O)Nc2ccc3ccccc3c2)CC(=O)N(Cc2ccccc2)c2ccccc21 (stereo not drawn) [Example 45, 1-benzyl-7-methyl-4-(2-naphthyl)carbamyl-2-oxo-2,3,4,5,6,7-hexahydro-1H-1,4-benzodiazonine]
10 µM | 15.8 µM |  |  | CC(C)(C)OC(=O)CN1C(=O)CN(C(=O)Oc2ccccc2)CCC(=O)c2ccccc21 [Example 43]
0.0501 µM | 1.26 µM |  |  | CC(C)(C)OC(=O)CN1C(=O)CN(C(=O)Nc2ccc(Cl)c(Cl)c2)CCC(=O)c2ccccc21 [Example 2, 1-tert-butyloxycarbonylmethyl-4-(3,4-dichlorophenyl)-carbamyl-2,7-dioxo-2,3,4,5,6,7-hexahydro-1H-1,4-benzodiazonine]
6.31 µM | 7.94 µM |  |  | CC(=O)N1[C@H](CC23CC4CC(CC(C4)C2)C3)C(=O)N(C)c2ccccc2C(=O)C[C@H]1C(=O)O [Example 21, (3R,5S)-4-acetyl-3-(1-adamantyl)methyl-1-methyl-2,7-dioxo-2;3,4,5,6,7-hexahydro-1H-1,4-benzodiazonine-5-carboxylate]
 |  | 5.4 | 5.5 | COC(=O)[C@@H]1CC(=O)c2ccccc2N(Cc2ccccc2)C(=O)[C@@H](CC23CC4CC(CC(C4)C2)C3)N1C(C)=O [Example 18, (3R,5S)-methyl 4-acetyl-3-[(1-adamantyl)methyl]-1-benzyl-2,7-dioxo-2,3,4,5,6,7-hexahydro-1H-1,4-benzodiazonine-5-carboxylate]
10 µM | 0.1 µM |  |  | CC(=O)N1[C@H](CC23CC4CC(CC(C4)C2)C3)C(=O)N(Cc2ccccc2Cl)c2ccccc2C(=O)C[C@H]1C(=O)NCC(=O)O [Example 63, (3R,5S)-4-acetyl-3-(1-adamantyl)methyl-1-(2-chlorobenzyl)-5-carboxymethylaminocarbonyl-2,7-dioxo-2,3,4,5,6,7-hexahydro-1H-1,4-benzodiazonine]
